This note sets out measurements from ChEMBL document CHEMBL1201862, “PubChem BioAssay data set” (2004).

Among the test systems are SN12C; OVCAR-5; CCRF-CEM; NCI-H460; U-251; M14; SF-295; TK-10; HL-60; HOP-92; OVCAR-8; SK-MEL-5; CAKI-1; HOP-62; HT-29; SF-268; OVCAR-3; SR; Malme-3M.
Common to all, as to assay: NCI tumour cell line growth inhibition, 48 h

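Exposure lasted 48 hours, with cells grown in 96-well plates and compounds tested at five concentrations. The concentration for 50% growth inhibition is given as GI50.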 Activity calls are given as the source filed them. Cut-off read from the data, not from the text of the source: active = GI50 up to about 1.1 µM and inactive = higher.

Consider `CC1=NN(c2nc(N)nc(CCl)n2)CC1`, for which the GI50 in the assay with SN12C is 32.4 µM (inactive); in the assay with OVCAR-5 it was 20 µM (inactive); in the assay with CCRF-CEM, 14.9 µM (inactive); in the assay with NCI-H460, 20.9 µM (inactive); in the assay with U-251, 29.4 µM (inactive); with M14, 25 µM (inactive). For the same molecule, the GI50 was 30.2 µM (inactive) with SF-295; 55.5 µM (inactive) in the assay on TK-10; 12 µM (inactive) with HL-60; 19.3 µM (inactive) in the assay with HOP-92; 20.8 µM (inactive) with OVCAR-8; 14.8 µM (inactive) in the assay with SK-MEL-5. In addition, the GI50 in the assay on CAKI-1 is 9.12 µM (inactive); in the assay with HOP-62, 11.4 µM (inactive); in the assay with HT-29, 30.4 µM (inactive); in the assay on SF-268 it was 32.7 µM (inactive); with OVCAR-3, 13.4 µM (inactive); in the assay with SR it was 20.8 µM (inactive).

`Cc1ccccc1C1OC(=O)c2ccc3ccccc3c21` (configuration not stated): the GI50 in the assay on SN12C was 5.47 µM (inactive); with OVCAR-5, 8.57 µM (inactive); with CCRF-CEM it was 4.21 µM (inactive); in the assay with NCI-H460, 3.23 µM (inactive); in the assay on U-251, 3.57 µM (inactive); in the assay on M14, 2.97 µM (inactive). Also, the GI50 is 7.35 µM (inactive) in the assay on SF-295; 7 µM (inactive) in the assay with TK-10; 2.79 µM (inactive) in the assay with HL-60; 10.8 µM (inactive) with HOP-92; 3.12 µM (inactive) with OVCAR-8; 3.53 µM (inactive) in the assay with SK-MEL-5. For the same molecule, the GI50 with Malme-3M is 5.56 µM (inactive); in the assay with CAKI-1 it was 6.21 µM (inactive); with HOP-62, 0.442 µM (active); in the assay with HT-29, 4.22 µM (inactive); in the assay with SF-268 it was 6.97 µM (inactive); in the assay with OVCAR-3 it was 3.65 µM (inactive). Besides, in the assay on SR, the GI50 is 0.769 µM (active).

In the case of `O=c1/c(=C/c2ccccc2[N+](=O)[O-])sc2nc3ccccc3n12`, the GI50 in the assay on SN12C is 44.1 µM (inactive); with OVCAR-5 it was > 46.5 µM (inactive); in the assay with CCRF-CEM, 13 µM (inactive); with NCI-H460, 37.8 µM (inactive); with U-251, 19.9 µM (inactive); with M14, 39.7 µM (inactive). Also, the GI50 with SF-295 was 18.8 µM (inactive); with TK-10, > 46.5 µM (inactive); in the assay with HL-60 it was 41.1 µM (inactive); in the assay with HOP-92, 32.1 µM (inactive); in the assay with OVCAR-8, 38.9 µM (inactive); with SK-MEL-5 it was 41.6 µM (inactive). Also, the GI50 in the assay with Malme-3M was 42.2 µM (inactive); with CAKI-1 it was > 73.1 µM (inactive); in the assay on HOP-62 it was 42.4 µM (inactive); with HT-29, > 46.5 µM (inactive); in the assay on SF-268, 29.9 µM (inactive); with OVCAR-3, > 31.6 µM (inactive). The GI50 in the assay with SR was 12.2 µM (inactive).

As to `CSc1ccc(N2C(=O)C3c4[nH]c5ccccc5c4C4CCC(C(C)(C)C)CC4C3C2=O)cc1` (configuration not stated), the GI50 is 16.1 µM (inactive) in the assay with SN12C; 48.3 µM (inactive) in the assay on OVCAR-5; 8.49 µM (inactive) in the assay on CCRF-CEM; 14.1 µM (inactive) in the assay with NCI-H460; 16.4 µM (inactive) in the assay on U-251; 27.5 µM (inactive) with M14. For the same molecule, the GI50 in the assay with SF-295 is 14.3 µM (inactive); in the assay with TK-10, 19.5 µM (inactive); with HL-60, 13.7 µM (inactive); in the assay with HOP-92, 11.3 µM (inactive); with OVCAR-8, 12.1 µM (inactive); in the assay on SK-MEL-5, 25.8 µM (inactive). Besides, the GI50 in the assay with Malme-3M is 12.3 µM (inactive); with CAKI-1, 19.9 µM (inactive); in the assay on HOP-62, 12.2 µM (inactive); in the assay on HT-29, 21.8 µM (inactive); in the assay with SF-268, 12.4 µM (inactive); with OVCAR-3, 41.2 µM (inactive). Further, in the assay with SR, the GI50 is 10.2 µM (inactive).

In the case of `CC(C)(C)OC(=O)NCC(O)CNC(=O)OC(C)(C)C`, the GI50 in the assay with SN12C, with OVCAR-5, in the assay with CCRF-CEM, with NCI-H460, in the assay with U-251 and with M14 was > 100 µM (inactive) each time. Moreover, the GI50 in the assay on SF-295, in the assay on TK-10, in the assay with HL-60, in the assay with HOP-92, in the assay on OVCAR-8 and in the assay with SK-MEL-5 was > 100 µM (inactive) throughout. Also, the GI50 in the assay with Malme-3M, in the assay with CAKI-1, in the assay with HOP-62, in the assay with SF-268, in the assay on OVCAR-3 and in the assay on SR was > 100 µM (inactive) in each case.

Regarding `Nc1c2ccccc2nc2nccnc12`, the GI50 in the assay on SN12C, in the assay with OVCAR-5, with CCRF-CEM, with NCI-H460, in the assay with U-251 and in the assay on M14 was > 100 µM (inactive) each time. Besides, the GI50 in the assay with SF-295, in the assay on TK-10, in the assay on HL-60, in the assay with HOP-92, in the assay on OVCAR-8 and in the assay with SK-MEL-5 was > 100 µM (inactive) throughout. The GI50 in the assay with Malme-3M, with CAKI-1, in the assay on HOP-62, with HT-29, in the assay with SF-268 and with OVCAR-3 was > 100 µM (inactive) in each case. The GI50 with SR is > 100 µM (inactive).

With `CC1=C(C)CC2(CCCCC2=O)[S+]([O-])C1` (configuration not stated), the GI50 with SN12C, in the assay on OVCAR-5, in the assay with CCRF-CEM, with NCI-H460, with U-251 and with M14 was > 100 µM (inactive) in each case. Besides, the GI50 in the assay on SF-295, in the assay with TK-10, with HL-60, with HOP-92, with OVCAR-8 and in the assay with SK-MEL-5 was > 100 µM (inactive) in each case. Also, the GI50 in the assay on Malme-3M, with HOP-62, in the assay with HT-29, with SF-268, in the assay with OVCAR-3 and in the assay on SR was > 100 µM (inactive) throughout.

As for `N=C(N)NS(=O)(=O)c1ccc(NC(=O)c2cccc3c(O)c4ccccc4nc23)cc1`, the GI50 was > 100 µM (inactive) with SN12C; 99.3 µM (inactive) with OVCAR-5; 28.9 µM (inactive) with CCRF-CEM; > 100 µM (inactive) with NCI-H460; 48 µM (inactive) with U-251; > 100 µM (inactive) in the assay on M14. The GI50 is 60.3 µM (inactive) with SF-295; 54.8 µM (inactive) in the assay with TK-10; > 100 µM (inactive) with HL-60; 56.2 µM (inactive) in the assay on HOP-92; 71.1 µM (inactive) in the assay on OVCAR-8; > 100 µM (inactive) with SK-MEL-5. Further, the GI50 in the assay on Malme-3M is > 100 µM (inactive); in the assay with CAKI-1, > 100 µM (inactive); in the assay with HOP-62 it was > 78.5 µM (inactive); in the assay with HT-29 it was > 100 µM (inactive); in the assay with SF-268 it was > 100 µM (inactive); in the assay on OVCAR-3, > 100 µM (inactive). For the same molecule, the GI50 in the assay on SR was > 74.8 µM (inactive).

Take `CCCCCCCC(=O)OCC(C[As](=O)(O)O)OC(=O)CCCCCCC` (configuration not stated): the GI50 is 14.7 µM (inactive) with SN12C; 6.49 µM (inactive) in the assay with CCRF-CEM; 15 µM (inactive) in the assay on U-251; 15 µM (inactive) in the assay on M14; 16.6 µM (inactive) with SF-295; 5.56 µM (inactive) with HL-60. Besides, the GI50 with HOP-92 was 12.7 µM (inactive); with OVCAR-8 it was 15.8 µM (inactive); with SK-MEL-5, 18.1 µM (inactive); with Malme-3M, 15.1 µM (inactive); in the assay on HOP-62, 20.3 µM (inactive); in the assay with HT-29 it was 17.1 µM (inactive). The GI50 in the assay on SF-268 is 14.9 µM (inactive); with SR it was 16.6 µM (inactive).

`O=S1OC(c2ccccc2)(c2ccccc2)C(c2ccccc2)(c2ccccc2)O1`: the GI50 is > 100 µM (inactive) in the assay on SN12C; > 100 µM (inactive) in the assay with OVCAR-5; 7.01 µM (inactive) with CCRF-CEM; > 30.1 µM (inactive) with NCI-H460; 25.1 µM (inactive) in the assay on U-251; > 100 µM (inactive) in the assay on M14. Besides, the GI50 was 14.1 µM (inactive) with SF-295; > 100 µM (inactive) in the assay with TK-10; 7.96 µM (inactive) with HL-60; 7.74 µM (inactive) in the assay on HOP-92; > 100 µM (inactive) in the assay on OVCAR-8; 15.4 µM (inactive) with SK-MEL-5. In addition, the GI50 is > 100 µM (inactive) in the assay on Malme-3M; > 100 µM (inactive) with HOP-62; 7.36 µM (inactive) in the assay on HT-29; > 91.4 µM (inactive) in the assay on SF-268; > 100 µM (inactive) in the assay with OVCAR-3; 8.93 µM (inactive) in the assay on SR.

With `CCOC(=O)Cn1c2ccccc2c(=O)c2cc(C)c(C)c(C#N)c21`, the GI50 in the assay on SN12C was > 100 µM (inactive); with OVCAR-5, > 100 µM (inactive); with CCRF-CEM it was > 100 µM (inactive); in the assay on NCI-H460, > 100 µM (inactive); in the assay on U-251, > 100 µM (inactive); in the assay on SF-295, 40.4 µM (inactive). The GI50 in the assay on TK-10 was > 100 µM (inactive); in the assay on HL-60, > 100 µM (inactive); in the assay on HOP-92 it was 21.8 µM (inactive); in the assay on OVCAR-8 it was 84.3 µM (inactive); in the assay with Malme-3M, > 100 µM (inactive); with HOP-62, 40.7 µM (inactive). Also, the GI50 in the assay on HT-29, in the assay on SF-268, in the assay with OVCAR-3 and with SR was > 100 µM (inactive) each time.
